In brackets after ≈: the same amount, converted by molar mass.
Columns and labels:
Type in all cases: cell-based
Proteus vulgaris TB-615 = assay: MIC by agar dilution method, Proteus vulgaris TB-615; conditions: TB615, P. vulgaris TB-615, tobramycin resistant strain, 10^6 CFU/ml, 37° C., 18 to 20 hours, read-out: Minimum Inhibitory Concentration (MIC)
Proteus mirabilis TB-617 = assay: MIC by agar dilution method, Proteus mirabilis TB-617; conditions: TB617, P. mirabilis TB-617 (not marked as resistant), 10^6 CFU/ml, 37° C., 18 to 20 hours, read-out: Minimum Inhibitory Concentration (MIC)
[1] = system: Pseudomonas aeruginosa TB-151; assay: MIC by agar dilution method, Pseudomonas aeruginosa TB-151; conditions: TB151, P. aeruginosa TB-151, tobramycin resistant strain, 10^6 CFU/ml, 37° C., 18 to 20 hours, read-out: Minimum Inhibitory Concentration (MIC)

**Q.** Which MIC (Proteus vulgaris TB-615) does the source give for `NC[C@H]1O[C@H](O[C@H]2[C@H](O)[C@@H](O[C@H]3O[C@H](CO)[C@@H](O)[C@H](N)[C@H]3O)[C@H](NC3=NCC[C@@H]3O)C[C@@H]2N)[C@H](N)C[C@@H]1O` [[A], 1N-[(S)(-)-3-hydroxy-1-pyrrolin-2-yl]tobramycin] here?
**A.** 25 µg/mL (≈ 45.4 µM)

**Q.** What about the MIC (Proteus mirabilis TB-617) of the same molecule?
**A.** 3.1 µg/mL (≈ 5.63 µM)

**Q.** And the MIC [1]?
**A.** 25 µg/mL (≈ 45.4 µM)

**Q.** With `NC[C@H]1O[C@H](O[C@H]2[C@H](O)[C@@H](O[C@H]3O[C@H](CO)[C@@H](O)[C@H](N)[C@H]3O)[C@H](N)C[C@@H]2N)[C@H](N)C[C@@H]1O` [TOB, tobramycin, reference compound] as the molecule, how does the MIC (Proteus vulgaris TB-615) read?
**A.** 50 µg/mL (≈ 107 µM)

**Q.** What about the MIC (Proteus mirabilis TB-617) of the same molecule?
**A.** 6.2 µg/mL (≈ 13.3 µM)

**Q.** And the MIC [1]?
**A.** 50 µg/mL (≈ 107 µM)

**Q.** For `NC[C@H]1O[C@H](O[C@H]2[C@H](O)[C@@H](O[C@H]3O[C@H](CO)[C@@H](O)[C@H](N)[C@H]3O)[C@H](NC3=NCCC[C@@H]3O)C[C@@H]2N)[C@H](N)C[C@@H]1O` [[B], 1N-[(S)(-)-3-hydroxy-3,4,5,6-tetrahydropyridin-2-yl]tobramycin], which MIC (Proteus vulgaris TB-615) is on record?
**A.** 25 µg/mL (≈ 44.3 µM)

**Q.** What about the MIC (Proteus mirabilis TB-617) of the same molecule?
**A.** 3.1 µg/mL (≈ 5.49 µM)

**Q.** And the MIC [1]?
**A.** 25 µg/mL (≈ 44.3 µM)

Source: patent US4248865A, “Novel aminoglycoside derivatives” (Shionogi & Co., Ltd., priority 1978, dated 1981)
